Measured values published in publication PMC5413024, “Mechanistic insights into the more potent effect of KP-54 compared to KP-10 in vivo” (PLoS ONE, 2017).

System: c-FOS in GnRH neurons
Test: Study 3: c-FOS activation in GnRH neurons after peripheral kisspeptin (dual-label immunohistochemistry, BSA-FITC to define the BBB)
Assay type: in vivo, mouse
Conditions: male mice
Procedure: Induction of expression of the immediate early gene c-Fos is regarded as a marker of neuronal activation. KISS1R activation results in c-FOS induction, which allows identification of the GnRH neurons that are activated by KP. We examined co-localization of c-FOS protein in GnRH neurons by immunohistochemistry 2h after peripheral injection of either KP-10 or KP-54. […] 1 nmol KP-54 was injected first, followed by injection of 100 μl of a 50mg/ml solution of BSA-FITC into the tail vein. The mice were perfused with 4% paraformaldehyde/PBS 2 hrs after KP-54 injection and the brains processed for c-FOS, GnRH and BSA-FITC detection. A negative control for fluorescence was also performed with unconjugated BSA.
Free-floating, dual-label chromogen immunohistochemistry was undertaken as described previously. Mice were perfused with 4% paraformaldehyde in PBS and the brains removed and post-fixed for 1h in the same fixative. The brains were cut as 40 μm free-floating coronal sections using a vibratome (VT1000S; Leica). […]
Sections were examined using an Axioscope 2 plus microscope (Carl Zeiss) using bright-field or fluorescence microscopy. […] Where appropriate, BSA-FITC was detected by epifluorescence microscopy at an excitation wavelength of 490 nm and an emission wavelength of 525 nm (green). About fifteen successive sections containing GnRH neurons were counted per animal (n = 6 per treatment). […]

CC[C@H](C)[C@H](NC(=O)[C@H](CCC(N)=O)NC(=O)[C@H](CCCNC(=N)N)NC(=O)[C@H](CO)NC(=O)[C@H](Cc1c[nH]cn1)NC(=O)[C@@H]1CCCN1C(=O)[C@H](C)NC(=O)[C@H](CO)NC(=O)[C@H](CC(C)C)NC(=O)CNC(=O)[C@@H]1CCCN1C(=O)[C@H](CCC(N)=O)NC(=O)[C@H](CCC(N)=O)NC(=O)[C@H](CCCNC(=N)N)NC(=O)[C@H](CO)NC(=O)CNC(=O)[C@H](CO)NC(=O)[C@H](CO)NC(=O)[C@H](CCC(=O)O)NC(=O)[C@@H]1CCCN1C(=O)[C@@H]1CCCN1C(=O)[C@@H]1CCCN1C(=O)[C@H](CO)NC(=O)[C@H](CC(C)C)NC(=O)[C@H](CO)NC(=O)[C@@H](NC(=O)CN)[C@@H](C)O)C(=O)N1CCC[C@H]1C(=O)N[C@@H](C)C(=O)N1CCC[C@H]1C(=O)N[C@@H](CCC(N)=O)C(=O)NCC(=O)N[C@@H](C)C(=O)N[C@H](C(=O)N[C@@H](CC(C)C)C(=O)N[C@H](C(=O)N[C@@H](CCC(N)=O)C(=O)N[C@@H](CCCNC(=N)N)C(=O)N[C@@H](CCC(=O)O)C(=O)N[C@@H](CCCCN)C(=O)N[C@@H](CC(=O)O)C(=O)N[C@@H](CC(C)C)C(=O)N1CCC[C@H]1C(=O)N[C@@H](CC(N)=O)C(=O)N[C@@H](Cc1ccc(O)cc1)C(=O)N[C@@H](CC(N)=O)C(=O)N[C@@H](Cc1c[nH]c2ccccc12)C(=O)N[C@@H](CC(N)=O)C(=O)N[C@@H](CO)C(=O)N[C@@H](Cc1ccccc1)C(=O)NCC(=O)N[C@@H](CC(C)C)C(=O)N[C@@H](CCCNC(=N)N)C(=O)N[C@@H](Cc1ccccc1)C(N)=O)C(C)C)C(C)C [KP-54]
c-FOS activation of GnRH neurons behind the blood brain barrier (functional surrogate for BBB crossing) (1 nmol KP-54 plus i.v. BSA-FITC (does not cross the BBB), 2 h, n = 3): c-FOS-positive GnRH neurons in hypothalamic areas that were negative for BSA-FITC
percentage of GnRH neurons positive for c-FOS (all regions) (2 h after peripheral injection of 1 nmol, n = 6, vehicle 0.54 ± 0.15%): 22.07 ± 2.96%
